Measured values reported in ChEMBL document CHEMBL4118122, “Identification and biological evaluation of thiazole-based inverse agonists of RORγt” (Bioorg Med Chem Lett, 2018).

What was measured:
[1] = biological target: Muscarinic acetylcholine receptor M1 (Homo sapiens) (UniProt P11229); experiment: Displacement of […] from human recombinant M1 receptor at 10 uM after 60 mins by scintillation counting analysis relative to control
[2] = biological target: Tyrosine-protein kinase JAK2 (Homo sapiens) (UniProt O60674); experiment: Inhibition of recombinant GST-tagged human JAK2 catalytic domain (809 to 1153 residues) expressed in baculovirus expression system at 10 uM in presence of ATP relative to control
[3] = biological target: T1, Sodium-dependent serotonin transporter (Homo sapiens, UniProt P31645); experiment: Displacement of [3H]-imipramine from recombinant human 5-HT transporter at 10 uM after 60 mins by scintillation counting relative to control
[4] = Volume of distribution at steady state in Sprague-Dawley rat at 1 mg/kg, iv; type: ADME, organism-based; details: in vivo, read-out: Vdss
[5] = biological target: Neuropeptide Y receptor type 2 (Homo sapiens) (UniProt P49146); experiment: Displacement of [125I]peptide YY from human Y2 receptor at 10 uM after 120 mins by scintillation counting analysis relative to control
Nociceptin receptor [6] = biological target: T2, Nociceptin receptor (Homo sapiens, UniProt P41146); experiment: Displacement of [3H]nociceptin from human recombinant NOP receptor at 1 uM after 60 mins by scintillation counting analysis relative to control
[7] = biological target: Insulin-like growth factor 1 receptor (Homo sapiens) (UniProt P08069); experiment: Inhibition of recombinant His-tagged human IGF1R cytoplasmic domain (960 to […] residues) expressed in baculovirus expression system at 10 uM in presence of ATP relative to control
Histamine H1 receptor = Histamine H1 receptor (Homo sapiens, UniProt P35367); experiment: Displacement of [3H]pyrilamine from human recombinant histamine H1 receptor at 10 uM after 60 mins by scintillation counting analysis relative to control
[8] = biological target: Endothelin-1 receptor (Homo sapiens) (UniProt P25101); experiment: Displacement of [125I]-endothelin-1 from human recombinant ETA receptor at 10 uM after 120 mins by scintillation counting analysis relative to control
[9] = Binding affinity to rat GABA receptor after 60 mins by agonist radioligand binding assay
[10] = biological target: Receptor-type tyrosine-protein kinase FLT3 (Homo sapiens) (UniProt P36888); experiment: Inhibition of recombinant His-tagged human FLT3 (564 to 958 residues) cytoplasmic domain expressed in baculovirus expression system at 10 uM in presence of ATP relative to control
Substance-K receptor = Substance-K receptor (Homo sapiens, UniProt P21452); experiment: Displacement of [125I]NKA from human recombinant NK2 receptor after 60 mins by scintillation counting analysis
Somatostatin receptor = experiment: Displacement of [125I]Tyr11-somatostatin-14 from mouse SST receptor after 60 mins by scintillation counting analysis; type: protein assay
[11] = biological target: Delta-type opioid receptor (Homo sapiens, UniProt P41143); experiment: Displacement of [3H]DADLE from human recombinant delta opioid receptor at 10 uM after 60 mins by scintillation counting analysis relative to control
Nociceptin receptor [12] = biological target: T2, Nociceptin receptor; experiment: Displacement of [3H]nociceptin from human recombinant NOP receptor after 60 mins by scintillation counting analysis
Rattus norvegicus [13] = species: Rattus norvegicus; experiment: Displacement of [3H]flunitrazepam from rat brain central BZD at 10 uM after 60 mins relative to control
[14] = biological target: Aurora kinase A (Homo sapiens) (UniProt O14965); experiment: Inhibition of recombinant full length His-tagged human Aurora A expressed in baculovirus expression system at 10 uM in presence of ATP relative to control
[15] = biological target: Platelet-derived growth factor receptor beta (Homo sapiens) (UniProt P09619); experiment: Inhibition of recombinant His-tagged human PDGFRbeta (558 to 1106 residues) cytoplasmic domain expressed in baculovirus expression system at 10 uM in presence of ATP relative to control
Rattus norvegicus [16] = species: Rattus norvegicus; experiment: Displacement of [3H]D 888 from rat brain L-type calcium channel verapamil binding site at 10 uM after 120 mins by scintillation counting analysis relative to control
[17] = biological target: Mitogen-activated protein kinase 12 (Homo sapiens) (UniProt P53778); experiment: Inhibition of recombinant full length His-tagged human p38gamma expressed in baculovirus expression system at 10 uM in presence of ATP relative to control
[18] = biological target: Neuropeptide Y receptor type 1 (Homo sapiens) (UniProt P25929); experiment: Displacement of [125I]peptide YY from human Y1 receptor at 1 uM after 120 mins by scintillation counting analysis relative to control
[19] = biological target: T1, Sodium-dependent serotonin transporter; experiment: Displacement of [3H]-imipramine from recombinant human 5-HT transporter after 60 mins by scintillation counting relative to control
[20] = biological target: Protein kinase C alpha type (Homo sapiens) (UniProt P17252); experiment: Inhibition of recombinant full length human PKCalpha expressed in baculovirus expression system at 10 uM in presence of ATP relative to control
[21] = Initial plasma concentration in Sprague-Dawley rat at 1 mg/kg, iv; type: ADME, organism-based
[22] = biological target: Adrenergic receptor alpha-1 (Rattus norvegicus) (UniProt P15823+P23944+P43140); experiment: Displacement of [3H]-prazosin from rat alpha1 adrenoceptor at 1 uM after 60 mins by scintillation counting analysis relative to control; type: protein assay
[23] = biological target: Casein kinase II subunit alpha (Homo sapiens) (UniProt P68400); experiment: Inhibition of CK2alpha1 (unknown origin) at 10 uM in presence of ATP relative to control
D(1A) dopamine receptor = D(1A) dopamine receptor (Homo sapiens, UniProt P21728); experiment: Displacement of [3H]-SCH 23390 from human recombinant dopamine D1 receptor at 1 uM after 60 mins by scintillation counting analysis relative to control
[24] = biological target: Cholecystokinin receptor type A (Homo sapiens) (UniProt P32238); experiment: Displacement of [125I]CCK-8s from human recombinant CCK1 receptor at 1 uM after 60 mins by scintillation counting analysis relative to control
Cytochrome P450 2D6 = Cytochrome P450 2D6 (Homo sapiens, UniProt P10635); experiment: Inhibition of CYP2D6 (unknown origin); type: ADME
[25] = biological target: Cholecystokinin receptor type A (Homo sapiens) (UniProt P32238); experiment: Displacement of [125I]CCK-8s from human recombinant CCK1 receptor at 10 uM after 60 mins by scintillation counting analysis relative to control
[26] = biological target: Neurotensin receptor type 1 (Homo sapiens, UniProt P30989); experiment: Displacement of [125I]Tyr3-neurotensin from human recombinant NTS1 receptor after 120 mins by scintillation counting analysis
[27] = biological target: C-C chemokine receptor type 1 (Homo sapiens) (UniProt P32246); experiment: Displacement of [125I]MIP-1alpha from human recombinant CCR1 receptor at 10 uM after 120 mins by scintillation counting analysis relative to control
[28] = biological target: cAMP-dependent protein kinase catalytic subunit alpha (Homo sapiens) (UniProt P17612); experiment: Inhibition of recombinant human His-tagged PRKACA expressed in Escherichia coli at 10 uM in presence of ATP relative to control
[29] = biological target: Adenosine receptor A1 (Homo sapiens) (UniProt P30542); experiment: Displacement of [3H]-DPCPX from human recombinant adenosine A1 receptor at 10 uM after 60 mins by scintillation counting analysis relative to control
Adenosine receptor A1 (Homo sapiens), sequence (P30542 whole entry): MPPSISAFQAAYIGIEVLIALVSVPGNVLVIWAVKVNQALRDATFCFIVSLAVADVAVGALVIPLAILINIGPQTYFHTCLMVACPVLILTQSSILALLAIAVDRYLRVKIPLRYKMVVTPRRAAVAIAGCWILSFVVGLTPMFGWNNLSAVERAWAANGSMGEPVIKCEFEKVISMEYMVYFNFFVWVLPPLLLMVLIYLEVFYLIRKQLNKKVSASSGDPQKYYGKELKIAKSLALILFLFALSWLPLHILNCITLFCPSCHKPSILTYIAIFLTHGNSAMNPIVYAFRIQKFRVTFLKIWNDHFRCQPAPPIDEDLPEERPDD

T2 sequence (P41146 whole entry, the tested form may be a part): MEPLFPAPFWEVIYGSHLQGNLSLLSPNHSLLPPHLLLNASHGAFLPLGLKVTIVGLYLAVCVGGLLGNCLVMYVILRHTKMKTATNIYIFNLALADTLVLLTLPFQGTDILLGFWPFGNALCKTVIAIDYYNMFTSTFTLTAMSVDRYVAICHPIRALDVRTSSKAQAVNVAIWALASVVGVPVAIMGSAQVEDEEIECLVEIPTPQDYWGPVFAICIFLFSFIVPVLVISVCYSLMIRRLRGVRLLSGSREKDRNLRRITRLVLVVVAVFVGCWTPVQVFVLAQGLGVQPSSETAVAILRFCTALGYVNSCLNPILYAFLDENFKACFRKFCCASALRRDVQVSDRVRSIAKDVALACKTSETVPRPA
Cholecystokinin receptor type A (Homo sapiens), sequence (P32238 whole entry): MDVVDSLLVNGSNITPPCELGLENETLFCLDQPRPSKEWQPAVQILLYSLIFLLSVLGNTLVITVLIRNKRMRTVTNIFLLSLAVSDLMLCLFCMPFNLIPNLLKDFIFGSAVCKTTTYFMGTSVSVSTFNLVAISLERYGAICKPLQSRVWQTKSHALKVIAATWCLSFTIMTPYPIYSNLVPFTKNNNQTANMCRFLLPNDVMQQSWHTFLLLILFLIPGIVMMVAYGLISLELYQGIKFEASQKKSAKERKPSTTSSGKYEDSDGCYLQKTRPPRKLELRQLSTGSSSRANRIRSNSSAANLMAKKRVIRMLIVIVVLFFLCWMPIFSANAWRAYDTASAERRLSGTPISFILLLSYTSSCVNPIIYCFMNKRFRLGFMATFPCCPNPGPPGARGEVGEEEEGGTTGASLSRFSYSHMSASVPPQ
Substance-K receptor, sequence (P21452 whole entry): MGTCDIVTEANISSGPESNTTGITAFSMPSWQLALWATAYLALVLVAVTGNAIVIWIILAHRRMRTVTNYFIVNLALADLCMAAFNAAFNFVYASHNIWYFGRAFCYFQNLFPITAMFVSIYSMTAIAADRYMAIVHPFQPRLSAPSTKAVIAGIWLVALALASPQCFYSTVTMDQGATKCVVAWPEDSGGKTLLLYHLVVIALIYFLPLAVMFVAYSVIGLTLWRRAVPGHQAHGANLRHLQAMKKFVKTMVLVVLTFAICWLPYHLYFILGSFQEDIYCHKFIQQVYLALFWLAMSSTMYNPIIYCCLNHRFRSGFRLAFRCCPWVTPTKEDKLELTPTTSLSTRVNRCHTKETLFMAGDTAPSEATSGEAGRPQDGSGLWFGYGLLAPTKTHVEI
Mitogen-activated protein kinase 12 (Homo sapiens), sequence (P53778 whole entry): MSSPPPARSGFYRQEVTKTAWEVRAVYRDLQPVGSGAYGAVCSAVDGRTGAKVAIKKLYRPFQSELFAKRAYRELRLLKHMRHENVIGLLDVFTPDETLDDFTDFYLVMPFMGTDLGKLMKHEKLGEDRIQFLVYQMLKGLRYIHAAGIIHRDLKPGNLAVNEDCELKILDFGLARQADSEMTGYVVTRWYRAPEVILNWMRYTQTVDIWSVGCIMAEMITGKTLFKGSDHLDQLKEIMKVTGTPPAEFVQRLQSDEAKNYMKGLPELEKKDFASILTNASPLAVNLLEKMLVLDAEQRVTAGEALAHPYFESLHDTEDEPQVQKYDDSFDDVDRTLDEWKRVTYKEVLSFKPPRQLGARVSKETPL
Endothelin-1 receptor (Homo sapiens), sequence (P25101 whole entry): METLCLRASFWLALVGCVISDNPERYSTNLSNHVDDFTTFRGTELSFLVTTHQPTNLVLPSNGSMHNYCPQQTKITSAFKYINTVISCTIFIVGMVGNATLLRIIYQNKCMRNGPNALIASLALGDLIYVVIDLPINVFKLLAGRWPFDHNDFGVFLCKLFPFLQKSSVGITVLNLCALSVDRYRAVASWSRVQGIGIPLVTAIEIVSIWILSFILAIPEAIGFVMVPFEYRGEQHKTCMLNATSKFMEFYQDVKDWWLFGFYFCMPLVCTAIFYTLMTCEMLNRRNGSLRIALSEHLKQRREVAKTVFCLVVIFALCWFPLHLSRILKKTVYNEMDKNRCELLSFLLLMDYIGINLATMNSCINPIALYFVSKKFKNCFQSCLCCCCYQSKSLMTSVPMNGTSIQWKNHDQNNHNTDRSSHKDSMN
Muscarinic acetylcholine receptor M1 (Homo sapiens), sequence (P11229 whole entry, the tested form may be a part): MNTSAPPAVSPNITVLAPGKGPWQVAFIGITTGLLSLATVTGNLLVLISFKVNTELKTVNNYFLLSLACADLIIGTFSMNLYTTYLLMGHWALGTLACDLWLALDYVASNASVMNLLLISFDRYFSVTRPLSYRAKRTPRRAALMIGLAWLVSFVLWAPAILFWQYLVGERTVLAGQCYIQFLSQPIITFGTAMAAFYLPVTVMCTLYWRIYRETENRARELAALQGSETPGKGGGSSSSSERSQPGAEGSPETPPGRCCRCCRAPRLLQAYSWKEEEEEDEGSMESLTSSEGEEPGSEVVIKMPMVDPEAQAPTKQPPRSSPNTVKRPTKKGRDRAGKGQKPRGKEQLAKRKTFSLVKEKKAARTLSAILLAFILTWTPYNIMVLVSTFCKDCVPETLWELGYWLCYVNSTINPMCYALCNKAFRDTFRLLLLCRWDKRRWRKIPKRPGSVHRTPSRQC
Tyrosine-protein kinase JAK2 (Homo sapiens), sequence (O60674 whole entry, the tested form may be a part): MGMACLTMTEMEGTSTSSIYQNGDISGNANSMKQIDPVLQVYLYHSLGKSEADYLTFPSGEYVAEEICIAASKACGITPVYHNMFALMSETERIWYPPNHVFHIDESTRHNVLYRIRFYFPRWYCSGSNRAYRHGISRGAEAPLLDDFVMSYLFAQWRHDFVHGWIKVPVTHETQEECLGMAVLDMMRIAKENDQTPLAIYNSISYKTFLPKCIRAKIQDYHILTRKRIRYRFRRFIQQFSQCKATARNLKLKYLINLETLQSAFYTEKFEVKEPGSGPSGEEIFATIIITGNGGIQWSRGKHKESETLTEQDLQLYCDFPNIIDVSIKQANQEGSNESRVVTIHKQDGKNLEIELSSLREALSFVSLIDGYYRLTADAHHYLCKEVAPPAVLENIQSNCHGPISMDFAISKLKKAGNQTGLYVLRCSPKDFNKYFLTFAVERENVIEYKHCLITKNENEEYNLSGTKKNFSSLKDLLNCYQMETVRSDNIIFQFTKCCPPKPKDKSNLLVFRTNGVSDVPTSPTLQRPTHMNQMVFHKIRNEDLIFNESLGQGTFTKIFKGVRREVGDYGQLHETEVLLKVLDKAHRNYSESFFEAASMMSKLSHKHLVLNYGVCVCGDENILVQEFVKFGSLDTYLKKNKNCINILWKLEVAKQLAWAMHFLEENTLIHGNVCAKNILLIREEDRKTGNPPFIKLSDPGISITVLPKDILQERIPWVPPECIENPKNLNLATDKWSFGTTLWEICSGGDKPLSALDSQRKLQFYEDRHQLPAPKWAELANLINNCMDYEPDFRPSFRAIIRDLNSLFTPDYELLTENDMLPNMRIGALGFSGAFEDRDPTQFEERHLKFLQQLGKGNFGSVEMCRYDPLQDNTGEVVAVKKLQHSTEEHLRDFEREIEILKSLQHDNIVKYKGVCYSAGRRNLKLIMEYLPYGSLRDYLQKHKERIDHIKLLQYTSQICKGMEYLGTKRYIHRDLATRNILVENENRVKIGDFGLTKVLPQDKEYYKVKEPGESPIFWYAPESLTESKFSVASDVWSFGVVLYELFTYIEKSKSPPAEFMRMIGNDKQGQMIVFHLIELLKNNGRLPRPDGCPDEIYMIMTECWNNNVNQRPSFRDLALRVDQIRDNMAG
Histamine H1 receptor, sequence (P35367 whole entry): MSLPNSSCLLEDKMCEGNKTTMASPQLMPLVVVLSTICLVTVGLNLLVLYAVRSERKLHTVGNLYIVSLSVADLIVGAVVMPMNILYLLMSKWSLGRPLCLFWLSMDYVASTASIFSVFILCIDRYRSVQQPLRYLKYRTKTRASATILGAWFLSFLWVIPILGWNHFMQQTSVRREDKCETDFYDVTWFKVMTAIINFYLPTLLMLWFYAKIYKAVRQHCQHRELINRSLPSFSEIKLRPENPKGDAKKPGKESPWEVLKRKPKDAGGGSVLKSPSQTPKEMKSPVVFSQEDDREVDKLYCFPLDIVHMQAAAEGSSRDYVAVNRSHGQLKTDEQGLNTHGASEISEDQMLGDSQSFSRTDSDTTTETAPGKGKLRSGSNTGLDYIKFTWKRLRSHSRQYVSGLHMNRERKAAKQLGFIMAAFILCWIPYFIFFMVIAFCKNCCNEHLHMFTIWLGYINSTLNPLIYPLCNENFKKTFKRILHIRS
D(1A) dopamine receptor, sequence (P21728 whole entry): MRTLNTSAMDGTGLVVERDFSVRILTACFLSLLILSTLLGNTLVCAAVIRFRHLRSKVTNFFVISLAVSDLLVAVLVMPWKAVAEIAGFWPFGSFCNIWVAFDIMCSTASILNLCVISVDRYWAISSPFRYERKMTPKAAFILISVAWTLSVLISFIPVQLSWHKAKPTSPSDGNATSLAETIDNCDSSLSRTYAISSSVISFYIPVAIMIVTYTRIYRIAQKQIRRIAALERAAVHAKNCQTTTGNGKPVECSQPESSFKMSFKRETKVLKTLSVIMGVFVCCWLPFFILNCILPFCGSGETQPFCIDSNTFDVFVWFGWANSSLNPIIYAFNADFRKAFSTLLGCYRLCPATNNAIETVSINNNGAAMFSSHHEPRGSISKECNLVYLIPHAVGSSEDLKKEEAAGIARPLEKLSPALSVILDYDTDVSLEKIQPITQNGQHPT

Compound `CC(C)(C)NS(=O)(=O)c1ccc(-c2sc(C(=O)N[C@H]3C[C@H](C(=O)O)C3)nc2CC2CCCCC2)c2ccccc12` has an inhibition [1] of under 10%, an inhibition [2] of 2% and an inhibition [3] of under 10%. For the same compound, the Vd [4] was 1.1 L/kg, the inhibition [5] was under 10% and the inhibition (Nociceptin receptor [6]) was under 10%. The inhibition [7] was -10%, the inhibition (Histamine H1 receptor) was 54% and the inhibition [8] was under 10%. The IC50 [9] was 114 nM, the inhibition [10] was 0% and the IC50 (Substance-K receptor) was 1.2 nM. It also gave an IC50 (Somatostatin receptor) of 0.31 nM, an inhibition [11] of 22% and an IC50 (Nociceptin receptor [12]) of 0.98 nM. It also gave an inhibition (Rattus norvegicus [13]) of under 10%, an inhibition [14] of -5% and an inhibition [15] of -4%. The inhibition (Rattus norvegicus [16]) was under 10%, the inhibition [17] was -2% and the inhibition [18] was under 10%. The IC50 [19] was 1.7 nM, the inhibition [20] was -1% and the C0 [21] was 4430 ng/mL. The inhibition [22] was under 10%, the inhibition [23] was 0% and the inhibition (D(1A) dopamine receptor) was under 10%. For the same compound, the inhibition [24] was under 10%, the INH (Cytochrome P450 2D6) was over 10 µM and the inhibition [25] was 54%. The IC50 [26] was 0.25 nM, the inhibition [27] was under 10% and the inhibition [28] was -4%. For the same compound, the inhibition [29] was under 10%.
